Experimental data published in patent publication US20260297136A1, “PEPTIDES WITH LIPOLYTIC, ANTI-LIPOGENIC, ANTIFIBROTIC AND ANTI-INFLAMMATORY ACTIVITY” (FUNDACIÓ HOSPITAL UNIVERSITARI VALL D'HEBRON - INSTITUT DE …, priority 2023, published 2026).

Experiments:
[1] = tested on: obesity and fatty liver disease mouse model; test: Preventive effects in an obesity and fatty liver disease mouse model, Example 4; format: in vivo, C57BL6/J male mice; conditions: 20 mg/kg/day sc, 8 weeks
Procedure: C57BL6/J male mice were purchased and kept for quarantine and acclimatization for a period of about 7 days before initiation of every experiment. Mice were housed in clean and sterilized mice cages and maintained in a controlled environment with 22+3° C. temperature, 50+20% humidity, a light/dark cycle of 12 hours each and 15-20 fresh air changes per hour.
For Obesity and NAFLD induction, the animals were fed ad libitum, either with chow diet (150SP-10, Safe Diets) or 45% high-fat diet (TD.190179, Envigo) plus 30% fructose (F0127, Sigma Aldrich) in drinking water for 8 weeks in the daily presence of vehicle or a subcutaneous injection of GP6 (20 mg/kg/day). A group of mice (n=18) was randomly divided in two groups of 9 mice each. Both groups were fed with high fat diet and 30% fructose in the drinking water for 8 weeks to develop obesity and fatty liver disease. One group was treated with daily subcutaneous injections of vehicle (water) and the other with daily subcutaneous injection of GP6 (20 mg/kg/day) during the 8 weeks that last the experiment.
At the end of the experiment mice were sacrificed, serum samples were extracted, tissues were weighted and part was fixed in paraformaldehyde for histology studies and part immediately frozen at −80 C for mRNA and protein expression studies as well as assessment of triglycerides.
For histological studies, livers and adipose tissue were fixed in 4% paraformaldehyde for 24 hours and embedded in paraffin. Serial […] sections were used for histological examination and stained with hematoxylin eosin (H&E) and Picrosirius red for histological examination following standard procedures. Briefly, sections were alcohol-xylol hydrated at room temperature, and subsequently, they were stained at room temperature in a solution of 0.1% Direct Red 80 (Sigma-Aldrich) in a saturated aqueous solution of [COMPOUND LEFT OUT] (Sigma-Aldrich) for 1 h. Following that, sections were rinsed twice in 0.5% acetic acid or 5 min, alcohol-xylol dehydrated and covered with Eukitt mounting medium (Sigma-Aldrich). These sections were examined with an Olympus BX61 microscope. Six random fields at 4× magnification from each slice were quantified using ImageJ software to determine the liver collagen deposition as the red stained area in the image. The stage of liver steatosis and/or fibrosis was assessed blinded by an experienced pathologist according to the NASH-clinical research network scoring system (Design and validation of a histological scoring system for nonalcoholic fatty liver disease. Kleiner D E, Brunt E M, Van Natta M, Behling C, Contos MJ, Cummings O W, Ferrell L D, Liu Y C, Torbenson M S, Unalp-Arida A, Yeh M, McCullough A J, Sanyal AJ; Nonalcoholic Steatohepatitis Clinical Research Network. Hepatology. 2005 June; 41(6):1313-21. doi: 10.1002/hep.20701; Transforming growth factor-beta 1: A new factor reducing hepatic SHBG production in liver fibrosis. Briansó-Llort L, Fuertes-Rioja L, Ramos-Perez L, Salcedo-Allende M T, Hernandez C, Simo R, Selva D M. J Cell Physiol. 2022 September; 237(9):3598-3613. doi: 10.1002/jcp.30818). […]
Hepatic TG content was measured from liver extracts using a Triglyceride Assay Kit (ab65336) following the manufacture's instructions.
Total RNA was extracted from mouse tissues using TRIzol reagent (Invitrogen SA). Reverse transcription was performed at 42° C. for 50 minutes using […] of total RNA, 200 U of Superscript II, and an oligo-dT primer and reagents provided by Invitrogen. An aliquot of the reverse transcription product was amplified in a […] reaction using SYBRGreen (Invitrogen SA) with appropriate oligonucleotide primer pairs corresponding mouse ACC, FAS, ACLY, PPARG, Col1A1, F4/80, TNFα, IL1β, IL6, TGFβ1, Leptin, Adiponectin and 18S (shown in table 7). […]

LX-2 cells = test: Fibrosis in LX-2 cells: Col1A1 mRNA induced by TGFβ1, Example 7; format: cell-based, human; conditions: 24 h
Procedure: FIG. 33. Effect of different peptides and SHBG on fibrosis in LX-2 cells.
LX-2 human hepatic stellate cells (SCC064) were maintained in DMEM supplemented with 2% fetal bovine serum and antibiotics. For experiments, LX-2 were cultured for 24 h in DMEM 0.2% FBS and treated for 24 h with vehicle or TGFβ1 (20 ng/ml) in the absence or presence of EDL6D (10 or 40 μg/ml). At the end of the experiment's cells were harvested for gene expression analysis.
Total RNA was extracted from HepG2 and LX-2 cells using TRIzol reagent (Invitrogen SA). Reverse transcription was performed at 42° C. for 50 minutes using […] of total RNA, 200 U of Superscript II, and an oligo-dT primer and reagents provided by Invitrogen. An aliquot of the reverse transcription product was amplified in a […] reaction using SYBRGreen (Invitrogen SA) with appropriate oligonucleotide primer pairs corresponding to human SHBG, ACC, FAS, ACLY, PPARG, and 18S and mouse ACC, FAS, ACLY, PPARG, Col1A1 and 18S. Results were analyzed using the 7000 Sequence Detection System program (Applied Biosystems, Thermo Fisher Scientific, Barcelona, Spain) (Shez-Lopez et al Endocrinology 2017).

[2] = blind pathologist, histology reduction confirmed

## CC[C@@H](C)[C@@H](NC(=O)[C@H](NC(=O)CNC(=O)[C@@H](CCC(=O)O)NC(=O)[C@H]1CCCN1C(=O)[C@@H](CC(=O)O)NC(=O)[C@@H](Cc1c[nH]c2ccccc12)NC(=O)[C@H](NC(=O)[C@@H](CCCNC(=N)N)NC(=O)[C@H](NC(=O)[C@@H](CCC(=O)O)NC(=O)[C@@H](Cc1ccccc1)NC(=O)[C@@H](CO)NC(=O)[C@@H](CO)NC(=O)[C@@H](CO)NC(=O)[C@H](NC(=O)[C@@H](CCCCN)NC(=O)[C@H](N)[C@H](C)O)[C@H](C)O)C(C)C)[C@H](C)O)C(C)C)C(=O)N[C@H](Cc1ccccc1)C(=O)N[C@H](Cc1ccc(O)cc1)C(=O)O [GP6]
[1]; vs vehicle
  ACC mRNA levels in liver: reduced the mRNA levels
  F480 mRNA levels in adipose tissue: reduced expression
  F480 mRNA levels in hepatic tissue: reduced expression
  FAS mRNA levels in liver: reduced the mRNA levels
  PPARγ mRNA levels in liver: reduced the mRNA levels
  Total body weight: significantly reduced
  adipose tissue fibrosis (Col1A1 mRNA expression in adipose tissue): reduced adipose tissue fibrosis
  hepatic expression of IL1β: reduced the hepatic expression
  hepatic expression of IL6: reduced the hepatic expression
  hepatic expression of TNFα: reduced the hepatic expression
  total liver weight: significantly reduced
  weight increment (weight at week 8-weight at week 0): significantly reduced
  weight of brown adipose tissue: significantly reduced
  weight of subcutaneous adipose tissue: significantly reduced
  weight of visceral adipose tissue: significantly reduced
[1]; vs vehicle, H&E
  hepatic lipid accumulation (histology): reduced significantly
[1]; [2]
  Brunt score: confirmed
  Steatosis score: confirmed
  percentage of steatosis: confirmed
[1]; histology reduction confirmed
  hepatic triglyceride content (Liver TAG): confirmed
LX-2 cells
  mRNA levels of collagen 1A1 induced by TGFβ1: reduced the mRNA levels
